Measured values: patent US8871753B2, “Macrocyclic compounds and their use as kinase inhibitors” (Incyte Corporation, priority 2008, dated 2014)
Where a name gives a salt, the structure may show the parent alone. Read-outs that look alike come from different tables or passages of the source.

Legend:
Type in all cases: biochemical
TYK2 = TYK2 (Homo sapiens, UniProt P29597); experiment: TYK2 kinase inhibition (Table A1)
[1] = target: T1, human JAK1 (a.a. 837-1142) (Homo sapiens, UniProt P23458); experiment: In vitro JAK kinase assay (HTRF, phosphorylation of a biotinylated peptide), JAK1; details: read-out: JAK1 IC50
T1 construct: human JAK1 (a.a. 837-1142); His tag (N); made in house; host or cells: insect cells (baculovirus)
T1 sequence (P23458 849-1154): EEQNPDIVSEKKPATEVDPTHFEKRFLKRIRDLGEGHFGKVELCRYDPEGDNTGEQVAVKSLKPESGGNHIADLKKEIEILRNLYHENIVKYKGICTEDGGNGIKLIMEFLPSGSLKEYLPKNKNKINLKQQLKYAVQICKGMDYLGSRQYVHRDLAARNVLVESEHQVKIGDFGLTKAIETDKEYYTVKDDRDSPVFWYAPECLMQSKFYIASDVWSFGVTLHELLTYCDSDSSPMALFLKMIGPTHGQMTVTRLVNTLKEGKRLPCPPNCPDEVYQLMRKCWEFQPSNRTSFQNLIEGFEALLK
In short: (§1)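 Kinase activity was measured as phosphorylation of a biotinylated peptide, with ATP at 90 μM for JAK1, 30 μM for JAK2 and 3 μM for JAK3. Reactions ran 1 hr at room temperature, were stopped with EDTA plus SA-APC and Eu-Py20, and were read by HTRF after 40 minutes of antibody binding.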

[2] = target: T2, human JAK2 (a.a. 828-1132) (Homo sapiens, UniProt O60674); experiment: In vitro JAK kinase assay (HTRF, phosphorylation of a biotinylated peptide), JAK2
T2 construct: JAK2 (a.a. 828-1132); His tag (N); made in house; host or cells: insect cells (baculovirus)
T2 sequence (O60674 828-1132): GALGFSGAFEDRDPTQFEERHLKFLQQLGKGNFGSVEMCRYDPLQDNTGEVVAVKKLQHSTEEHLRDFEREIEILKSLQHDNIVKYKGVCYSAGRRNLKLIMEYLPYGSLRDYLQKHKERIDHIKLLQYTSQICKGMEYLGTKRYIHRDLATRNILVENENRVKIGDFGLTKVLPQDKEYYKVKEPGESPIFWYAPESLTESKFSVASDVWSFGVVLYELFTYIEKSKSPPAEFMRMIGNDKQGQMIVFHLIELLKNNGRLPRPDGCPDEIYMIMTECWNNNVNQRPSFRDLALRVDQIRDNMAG
In short: as §1

[3] = target: T3, Recombinant Human Anaplastic Lymphoma Kinase (Homo sapiens, UniProt Q9UM73); experiment: ALK HTRF kinase assay
T3 construct: purchased Invitrogen, Carlsbad, Calif
T3 sequence (Q9UM73 19-1620): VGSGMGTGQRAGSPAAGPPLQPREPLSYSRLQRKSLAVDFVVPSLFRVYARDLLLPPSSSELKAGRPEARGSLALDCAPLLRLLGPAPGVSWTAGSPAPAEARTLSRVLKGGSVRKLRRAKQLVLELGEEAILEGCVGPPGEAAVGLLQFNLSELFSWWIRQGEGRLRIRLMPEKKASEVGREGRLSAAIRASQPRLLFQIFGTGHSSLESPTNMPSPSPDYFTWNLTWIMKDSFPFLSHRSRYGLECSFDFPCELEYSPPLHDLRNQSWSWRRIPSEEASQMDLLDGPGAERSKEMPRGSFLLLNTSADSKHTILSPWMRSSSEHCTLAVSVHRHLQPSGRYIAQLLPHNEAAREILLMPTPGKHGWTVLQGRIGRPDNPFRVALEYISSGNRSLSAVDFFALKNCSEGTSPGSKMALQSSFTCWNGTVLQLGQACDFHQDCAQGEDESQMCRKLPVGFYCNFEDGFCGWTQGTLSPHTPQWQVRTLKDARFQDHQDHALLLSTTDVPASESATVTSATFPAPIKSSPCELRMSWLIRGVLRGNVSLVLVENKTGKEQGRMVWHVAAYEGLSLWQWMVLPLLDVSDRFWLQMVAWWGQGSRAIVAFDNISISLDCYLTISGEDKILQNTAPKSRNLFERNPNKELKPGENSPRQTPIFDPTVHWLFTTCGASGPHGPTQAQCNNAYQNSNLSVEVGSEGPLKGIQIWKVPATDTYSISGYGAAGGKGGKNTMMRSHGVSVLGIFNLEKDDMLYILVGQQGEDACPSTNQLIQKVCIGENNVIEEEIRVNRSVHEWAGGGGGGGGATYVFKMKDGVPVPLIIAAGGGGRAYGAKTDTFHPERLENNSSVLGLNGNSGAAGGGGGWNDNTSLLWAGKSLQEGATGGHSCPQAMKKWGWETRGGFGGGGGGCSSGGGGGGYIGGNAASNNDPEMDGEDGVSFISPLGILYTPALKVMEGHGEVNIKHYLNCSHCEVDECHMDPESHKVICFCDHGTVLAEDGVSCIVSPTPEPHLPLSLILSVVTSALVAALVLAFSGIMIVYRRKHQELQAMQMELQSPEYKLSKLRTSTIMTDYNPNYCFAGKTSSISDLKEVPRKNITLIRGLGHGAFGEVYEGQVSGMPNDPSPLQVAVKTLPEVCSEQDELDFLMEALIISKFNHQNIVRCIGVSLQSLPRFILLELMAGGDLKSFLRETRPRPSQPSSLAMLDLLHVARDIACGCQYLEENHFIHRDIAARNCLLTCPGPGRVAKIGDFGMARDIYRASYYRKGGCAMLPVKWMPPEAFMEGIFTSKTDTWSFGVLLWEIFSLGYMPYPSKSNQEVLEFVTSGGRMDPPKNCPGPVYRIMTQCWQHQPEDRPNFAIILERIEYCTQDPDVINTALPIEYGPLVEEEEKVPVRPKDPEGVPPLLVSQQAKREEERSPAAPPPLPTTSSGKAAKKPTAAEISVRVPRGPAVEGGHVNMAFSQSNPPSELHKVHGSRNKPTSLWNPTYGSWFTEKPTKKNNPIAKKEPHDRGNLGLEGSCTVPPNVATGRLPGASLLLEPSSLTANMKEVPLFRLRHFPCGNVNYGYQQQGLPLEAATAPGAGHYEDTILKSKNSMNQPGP
In short: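 Kinase activity of the recombinant human protein is measured on a biotinylated peptide, with a Eu-W1024 anti-phosphotyrosine antibody and streptavidin-allophycocyanin generating the homogeneous time-resolved fluorescence signal. Inhibition curves are fitted to yield IC50.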

[4] = target: T4, human JAK3 (a.a. 781-1124) (Homo sapiens, UniProt P52333); experiment: In vitro JAK kinase assay (HTRF, phosphorylation of a biotinylated peptide), JAK3
T4 construct: JAK3 (a.a. 781-1124); His tag (N); made in house; host or cells: insect cells (baculovirus)
T4 sequence (P52333 781-1124): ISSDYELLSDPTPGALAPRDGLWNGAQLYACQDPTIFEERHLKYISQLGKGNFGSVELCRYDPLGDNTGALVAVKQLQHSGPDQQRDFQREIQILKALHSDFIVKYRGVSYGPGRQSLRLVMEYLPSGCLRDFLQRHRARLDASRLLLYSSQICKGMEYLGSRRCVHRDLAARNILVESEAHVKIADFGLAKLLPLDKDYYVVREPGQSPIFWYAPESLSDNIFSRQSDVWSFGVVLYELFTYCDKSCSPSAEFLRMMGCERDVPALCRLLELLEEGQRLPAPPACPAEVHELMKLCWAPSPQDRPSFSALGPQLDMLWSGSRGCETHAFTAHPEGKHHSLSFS
In short: as §1

[5] = Table B1, cells without percent sign
[6] = method AA1 (90 μM ATP) or AA2 (1000 μM ATP), not stated per value
[7] = method AA1 (30 μM ATP) or AA2 (1000 μM ATP), not stated per value
[8] = compound at 500 nM or 1 mM, 90 μM ATP
[9] = method AA1 (3 μM ATP) or AA2 (1000 μM ATP), not stated per value
[10] = compound at a concentration of 500 nM or 1 mM (not specified), cells shown as percentage

TYK2, sequence (P29597 whole entry): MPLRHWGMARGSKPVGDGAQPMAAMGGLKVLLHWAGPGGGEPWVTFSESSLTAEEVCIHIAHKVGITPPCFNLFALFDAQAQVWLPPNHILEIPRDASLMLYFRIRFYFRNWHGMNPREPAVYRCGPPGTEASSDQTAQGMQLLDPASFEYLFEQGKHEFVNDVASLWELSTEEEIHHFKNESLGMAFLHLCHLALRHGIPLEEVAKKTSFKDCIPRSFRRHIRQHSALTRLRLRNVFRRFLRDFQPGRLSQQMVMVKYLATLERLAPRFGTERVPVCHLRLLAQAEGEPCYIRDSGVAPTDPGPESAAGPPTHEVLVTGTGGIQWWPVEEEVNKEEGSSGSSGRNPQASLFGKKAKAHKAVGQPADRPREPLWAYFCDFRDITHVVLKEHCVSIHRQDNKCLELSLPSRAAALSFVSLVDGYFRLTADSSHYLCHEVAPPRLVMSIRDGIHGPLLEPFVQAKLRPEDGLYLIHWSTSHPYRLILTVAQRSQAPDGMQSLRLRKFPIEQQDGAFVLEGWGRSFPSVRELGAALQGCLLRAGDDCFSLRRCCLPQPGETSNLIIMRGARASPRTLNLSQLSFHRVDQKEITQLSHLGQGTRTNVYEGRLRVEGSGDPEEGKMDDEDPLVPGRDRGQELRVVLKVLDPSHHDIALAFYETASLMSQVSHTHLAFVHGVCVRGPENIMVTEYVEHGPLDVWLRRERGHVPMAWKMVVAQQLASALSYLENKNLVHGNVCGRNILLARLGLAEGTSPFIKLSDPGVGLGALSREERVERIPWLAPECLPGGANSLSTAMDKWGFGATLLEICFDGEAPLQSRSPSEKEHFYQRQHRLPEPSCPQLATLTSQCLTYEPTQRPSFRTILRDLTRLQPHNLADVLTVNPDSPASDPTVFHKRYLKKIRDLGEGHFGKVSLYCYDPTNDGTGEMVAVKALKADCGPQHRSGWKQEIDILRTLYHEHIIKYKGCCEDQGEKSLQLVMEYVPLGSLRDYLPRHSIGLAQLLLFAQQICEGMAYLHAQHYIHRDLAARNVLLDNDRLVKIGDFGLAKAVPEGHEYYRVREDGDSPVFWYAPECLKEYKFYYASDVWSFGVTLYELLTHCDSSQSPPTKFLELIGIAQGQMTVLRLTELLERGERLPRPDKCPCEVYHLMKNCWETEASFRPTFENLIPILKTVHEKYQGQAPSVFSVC

| Structure (SMILES) | IC50 (TYK2; Table B1) | IC50 ([1]; Table B1) | IC50 ([2]; Table B1) | IC50 ([4]; Table B1) | IC50 (TYK2) | IC50 [1, 6] | IC50 [2, 7] | IC50 [4, 9] | further results |
| --- | --- | --- | --- | --- | --- | --- | --- | --- | --- |
| Cn1c(NC(=O)c2cc3cc(c2)OCCSc2cccc(c2)Nc2nc(ncc2Cl)N3)nc2ccccc21 [Example D55, 6-Chloro-N-(1-methyl-1H-benzimidazol-2-yl)-17-oxa-14-thia-2,4,8,24-tetraazatetracyclo[16.3.1.1(3,7).1(9,13)]tetracosa-1(22),3(24),4,6,9(23),10,12,18,20-nonaene-20-carboxamide bis(trifluoroacetate)] | – | – | – | – | – | – | – | – | IC50 (TYK2; Table D1): 88 nM; IC50 ([1]; Table D1): 56 nM; IC50 ([2]; Table D1): 40 nM; IC50 ([3]; Table D1, 90 μM ATP): > 10000 nM; IC50 ([4]; Table D1): 129 nM |
| O=S(=O)(Nc1ccc2cc1CCc1cccc(c1)Nc1ncc(Cl)c(n1)N2)c1ccc(Cl)cc1 [Example B139, 4-Chloro-N-[6-chloro-2,4,8,22-tetraazatetracyclo[14.3.1.1(3,7).1(9,13)]docosa-1(20),3(22),4,6,9(21),10,12,16,18-nonaen-12-yl]benzenesulfonamide trifluoroacetate] | 0.84 nM | 0.5 nM | 0.1 nM | 5.1 nM | – | – | – | – | IC50 [3, 5]: 290 nM |
| CCNC(=O)N1CC[C@@H](C(=O)Nc2ccc3cc2CCc2cccc(c2)Nc2ncc(Cl)c(n2)N3)C1 [Example A53, (3R)—N(3)-[6-Chloro-2,4,8,22-tetraazatetracyclo[14.3.1.1(3,7).1(9,13)]docosa-1(20),3(22),4,6,9(21),10,12,16,18-nonaen-12-yl]-N(1)-ethylpyrrolidine-1,3-dicarboxamide trifluoroacetate] | – | – | – | – | 14 nM | 6.1 nM | 1.2 nM | 3.2 nM | ALK % of inhibition at a concentration of 500 nM or 1 mM [3, 8]: 35% |
| O=C(NCCN1CCCC1)Nc1ccc2cc1CCc1cccc(c1)Nc1ncc(Cl)c(n1)N2 [Example B255, N-[6-Chloro-2,4,8,22-tetraazatetracyclo[14.3.1.1(3,7).1(9,13)]docosa-1(20),3(22),4,6,9(21),10,12,16,18-nonaen-12-yl]-N′-(2-pyrrolidin-1-ylethyl)urea bis(trifluoroacetate)] | 25 nM | 5.5 nM | 14 nM | 53 nM | – | – | – | – | ALK % of inhibition at a concentration of 500 nM or 1 mM [3, 10]: 32% |
| Cc1cc(C(=O)N2CCC(C(=O)N(C)Cc3ccc4cc3CCc3cncc(c3)Nc3ncc(Cl)c(n3)N4)CC2)no1 [Example B335, N-{[6-Chloro-2,4,8,18,22-pentaazatetracyclo[14.3.1.1(3,7).1(9,13)]docosa-1(20),3(22),4,6,9(21),10,12,16,18-nonaen-12-yl]methyl}-N-methyl-1-[(5-methylisoxazol-3-yl)carbonyl]piperidine-4-carboxamide bis(trifluoroacetate)] | > 200 nM | 45 nM | 77 nM | > 200 nM | – | – | – | – | ALK % of inhibition at a concentration of 500 nM or 1 mM ([3]; percentage inhibition of the example compound at a concentration of 500 nM or 1 mM (not specified which)): 18% |
| CC(C)S(=O)(=O)c1ccc2cc1Nc1nc(ncc1Cl)Nc1cccc(c1)CC2 [Example A8, 6-Chloro-10-(isopropylsulfonyl)-2,4,8,22-tetraazatetracyclo[14.3.1.1(3,7).1(9,13)]docosa-1(20),3(22),4,6,9(21),10,12,16,18-nonaene trifluoroacetate] | – | – | – | – | 80 nM | 51 nM | 52 nM | 20 nM | IC50 ([3]; 90 μM ATP): 80 nM |
| N#Cc1ccc(C(F)(F)F)cc1N1CCC(CC(=O)Nc2ccc3cc2CCc2cncc(c2)Nc2ncc(Cl)c(n2)N3)CC1 [Example A237, N-[6-Chloro-2,4,8,18,22-pentaazatetracyclo[14.3.1.1(3,7).1(9,13)]docosa-1(20),3(22),4,6,9(21),10,12,16,18-nonaen-12-yl]-2-{1-[2-cyano-5-(trifluoromethyl)phenyl]piperidin-4-yl}acetamide tris(trifluoroacetate)] | – | – | – | – | > 400 nM | 90 nM | > 400 nM | > 400 nM | ALK % of inhibition at a concentration of 500 nM or 1 mM [3, 8]: 5.9% |
| O=C(Nc1ccc2cc1CCc1cccc(c1)Nc1ncc(Cl)c(n1)N2)C1CCN(S(=O)(=O)c2ccccc2)CC1 [Example A42, N-[6-Chloro-2,4,8,22-tetraazatetracyclo[14.3.1.1(3,7).1(9,13)]docosa-1(20), 3(22),4,6,9(21),10,12,16,18-nonaen-12-yl]-1-(phenylsulfonyl)piperidine-4-carboxamide trifluoroacetate] | – | – | – | – | 183 nM | 21 nM | 24 nM | 58 nM | ALK % of inhibition at a concentration of 500 nM or 1 mM [3, 8]: 34% |
| Cc1cc(C(=O)N2CCC(CC(=O)Nc3ccc4cc3CCc3cccc(c3)Nc3ncc(Cl)c(n3)N4)CC2)n[nH]1 [Example A175, N-[6-Chloro-2,4,8,22-tetraazatetracyclo[14.3.1.1(3,7).1(9,13)]docosa-1(20),3(22),4,6,9(21),10,12,16,18-nonaen-12-yl]-2-{1-[(5-methyl-1H-pyrazol-3-yl)carbonyl]piperidin-4-yl}acetamide bis(trifluoroacetate)] | – | – | – | – | 1.8 nM | 1 nM | 13 nM | > 200 nM | ALK % of inhibition at a concentration of 500 nM or 1 mM [3, 8]: 28% |
| CN1CCN(C(=O)c2cc3cc(c2)Nc2nc(ncc2Cl)Nc2cccc(c2)CC3)CC1 [Example B8, 6-Chloro-11-[(4-methylpiperazin-1-yl)carbonyl]-2,4,8,22-tetraazatetracyclo[14.3.1.1(3,7).1(9,13)]docosa-1(20),3(22),4,6,9(21),10,12,16,18-nonaene trifluoroacetate] | > 1000 nM | 500 nM | 350 nM | > 1000 nM | – | – | – | – | IC50 [3, 5]: > 1000 nM |
| Cc1noc(C)c1NC(=O)N1CCC(CC(=O)Nc2ccc3cc2CCc2cncc(c2)Nc2ncc(Cl)c(n2)N3)CC1 [Example A145, 4-(2-{[6-Chloro-2,4,8,18,22-pentaazatetracyclo[14.3.1.1(3,7).1(9,13)]docosa-1(20),3(22),4,6,9(21),10,12,16,18-nonaen-12-yl]amino}-2-oxoethyl)-N-(3,5-dimethylisoxazol-4-yl)piperidine-1-carboxamide bis(trifluoroacetate)] | – | – | – | – | 43 nM | 16 nM | 30 nM | > 100 nM | ALK % of inhibition at a concentration of 500 nM or 1 mM ([3]; compound at 500 nM or 1 mM, 90 μM ATP, bis(trifluoroacetate)): 21% |
| O=C(Nc1ccc2cc1CCc1cncc(c1)Nc1ncc(Cl)c(n1)N2)N1CCN(c2ccc(C(F)(F)F)cn2)CC1 [Example B301, N-[6-Chloro-2,4,8,18,22-pentaazatetracyclo[14.3.1.1(3,7).1(9,13)]docosa-1(20),3(22),4,6,9(21),10,12,16,18-nonaen-12-yl]-4-[5-(trifluoromethyl)pyridin-2-yl]piperazine-1-carboxamide tris(trifluoroacetate)] | 75 nM | 35 nM | > 400 nM | > 400 nM | – | – | – | – | ALK % of inhibition at a concentration of 500 nM or 1 mM [3, 10]: 58% |
| CCC(C)C(=O)Nc1ccc2cc1CCc1cccc(c1)Nc1ncc(Cl)c(n1)N2 (stereo not shown) [Example B61, N-[6-Chloro-2,4,8,22-tetraazatetracyclo[14.3.1.1(3,7).1(9,13)]docosa-1(20), 3(22),4,6,9(21),10,12,16,18-nonaen-12-yl]-2-methylbutanamide trifluoroacetate] | 34 nM | 19 nM | 1.4 nM | 3 nM | – | – | – | – | IC50 [3, 5]: 680 nM |
| Clc1cnc2nc1Nc1cccc(c1)CNc1cccc(c1)N2 [Example D17, 6-Chloro-2,4,8,15,22-pentaazatetracyclo[14.3.1.1(3,7).1(9,13)]docosa-1(20),3(22),4,6,9(21),10,12,16,18-nonaene bis(trifluoroacetate)] | – | – | – | – | – | – | – | – | IC50 (TYK2; Table D1): 77 nM; IC50 ([1]; Table D1): 63 nM; IC50 ([2]; Table D1): 32 nM; IC50 ([3]; Table D1, 90 μM ATP): > 1000 nM; IC50 ([4]; Table D1): 165 nM |
